# Legend:
# [1] = molecular target: T1, OR4S2 (Homo sapiens, UniProt Q8NH73); experiment: cell-based dose-response, cAMP increase by HTRF, HEK293T cells (endogenous RTP1 activated) co-transfected with human Golf, Rho-FLAG tagged receptor; design: the human receptors were tagged with a Rho-FLAG® tag combination; expressed in transfected cells
# T1 sequence (Q8NH73 1-311): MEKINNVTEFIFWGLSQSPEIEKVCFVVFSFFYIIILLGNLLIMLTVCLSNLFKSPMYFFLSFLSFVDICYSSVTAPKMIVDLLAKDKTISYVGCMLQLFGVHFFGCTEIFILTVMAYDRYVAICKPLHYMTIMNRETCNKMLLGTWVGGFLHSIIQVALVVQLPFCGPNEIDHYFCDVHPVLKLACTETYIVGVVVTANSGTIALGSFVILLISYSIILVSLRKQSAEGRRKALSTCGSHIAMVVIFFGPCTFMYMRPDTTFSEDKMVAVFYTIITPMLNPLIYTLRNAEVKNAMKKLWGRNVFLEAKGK
# Method: (§1) Functional dose-response experiments were performed to evaluate the level of DMTS activity of the modified cell line expressing individual putative DMTS receptors. Using a cell-based assay, mouse receptor Olfr1193, Olfr1093, Olfr1097, Olrf166, Olfr169, Olfr738 and Olfr742, and human receptor OR4S2 and OR52N5 were tested in an HEK293T cell line wherein the endogenous RTP1 gene has been activated and the odorant receptor chaperone protein was expressed (described in WO2016/201153). The mouse receptor genes were tagged with a Lucy-FLAG®-Rho tag combination and the human receptors were tagged with a Rho-FLAG® tag combination resulting in a tag:receptor fusion protein for the cell based assay. Receptor genes were co-transfected with the canonical olfactory human G-protein alpha subunit Golf gene and were exposed to increasing concentrations of the malodor odorant. Co-expression of the human Golf activates the Gs transduction pathway that leads to an internal cAMP increase upon binding to the appropriate ligand. Odorant-induced activity was detected by measuring the cAMP increase in the cytosol using an Homogeneous Time Resolved Fluorescence (HTRF) based kit (CisBio, cAMP dynamic 2 kit, cat. 62AM4PEJ). […]
# [2] = test system: cells that do not express the odorant receptors (HEK293T); experiment: Mock transfection control experiment (Example 5); format: cell-based
# Method: as §1
# [3] = test system: mouse receptor Olfr1193, Olfr1093, Olfr1097, Olrf166, Olfr169, Olfr738 and Olfr742, and human receptor OR4S2 and OR52N5; experiment: cAMP HTRF dose-response assay in HEK293T cells expressing odorant receptors (Example 2); format: cell-based; settings: increasing concentrations of odorant, receptors co-transfected with human Golf
# [4] = test system: mouse receptors Olfr1193, Olfr1093, Olfr1097, Olfr166, Olfr169, Olfr738, Olfr742 and human odorant receptor OR4S2; experiment: cAMP HTRF dose-response assay, DMTS/DMDS response profiles (Example 5); format: cell-based; settings: increasing concentration of compound; relative to butyric acid control
# Method: as §1
smiles,measurement,setting,value
"CSSSC [DMTS, dimethyl trisulfide]",EC50,"[1]; FIG. 2, Example 2, SEQ ID NO: 42",2000 nM
same,EC50,"[1]; FIG. 5, Example 5, SEQ ID NO: 42",325 nM
same,activity upon exposure in mock transfected cells,[2],did not show activity
same,receptor activity (cAMP increase in the cytosol),[3],dose-dependent increase of the receptor activity
same,receptor activity (cAMP increase),[4],strong dose-dependent increase of the receptor activity

# Reference: US11787847B2, “Method of identifying malodor modulating compounds” (FIRMENICH SA, priority 2017, dated 2023)
